According to patent publication US11559575B2, “Multi-epitopic peptide compounds and vaccines against leishmaniasis” (INSTITUT DE RECHERCHE POUR LE DEVELOPPEMENT, priority 2018, dated 2023):
“Also recorded” adds a separate entry of the source.

What was measured:
[1] = test system: HLA supertypes of class I; test: Affinity of epitopes for HLA supertypes of class I; assay type: binding, human; settings: for Affinity for the HLA supertypes of class I: H2B-1 epitopes, Table 1
From the text: HLA molecules are highly polymorphous. This is because there exist more than 2500 HLA proteins of class I (HLA-I) and more than 1000 HLA proteins of class II (HLA-II). However, some of these HLA molecules, close in sequence and in spatial conformation, may have epitopes common to the T cells. The grouping of several thousands of HLA molecules is at the present time described in a little more than 20 or so categories, referred to as “HLA supertypes” having epitopes that are very well preserved for each supertype.

HLA alleles of class I = test: Affinity of epitopes for HLA alleles of class I; assay type: binding, human; settings: for Affinity for the HLA alleles of class I: H2B-1 epitopes, Table 1
From the text: The multiepitopic peptide compounds (24 to 40-mer), having a high affinity with a maximized number of HLA molecules of class I and of class II, such as the affinities for the alleles HLA of class I and HLA of class II of the epitopes in the peptides of the sequences SEQ ID NO: 22, 23, 65, 66, 69, 73, 77, 96, 97, 137, 138, and 157, 185, have a high immunoprevalent potential corresponding to an optimal vaccine coverage, in particular for the populations concerned. The degree of coverage of the peptide compounds of the invention show a very high added value compared with the peptides of the prior art.

[2] = test system: CD4+ T cells of a naive individual (MPL10); test: IFN-γ ELISPOT with CD4+ T cells and autologous dendritic cells of a naive individual (long protocol, three stimulations); assay type: cell-based, human
Procedure: The immunogenicity was evaluated, with combinations of peptides (combination corresponding to the “Pool H”) at 1 μM for each peptide, from samplings of blood of naive individuals and according to a long protocol with at least three successive stimulations. An IFN-γ ELISPOT test for measuring the frequency of the pre-existing naive T cells and the amplitude of the specific naive T repertoire for each peptide, was performed with the CD4+ T cells and the autologous dendritic cells of a naive individual in the presence or absence of the mixture of peptides, or in the presence of each peptide individually. […] The “Pool H” combination was used either with peptides not modified at the amino-terminal end and with amidation of the carboxy-terminal end, or with peptides chemically modified by a palmitoyl tail at the amino-terminal end and with amidation of the carboxy-terminal end.
The evaluation of the immunogenicity properties of peptide compounds according to the invention in naive individuals, persons who have never been in contact with the Leishmania parasite, is an important factor in predicting the efficacy of a peptide vaccine (Kwok WW et al, 2012, Frequency of epitope-specific naive CD4(+) T cells correlates with immunodominance in the human memory repertoire; Castelli F A et al, 2007, Differential capacity of T cell priming in naive donors of promiscuous CD4+ T cell epitopes of HCV NS3 and Core proteins). Immunogenicity is evaluated in vitro by measuring the frequency of the pre-existing naive T cells and the amplitude of the naive T repertoire specific for each compound. The evaluation is carried out using blood samples from naive individuals and in accordance with a long protocol (Castelli F A, et al. 2007 as aforementioned) putting purified T lymphocytes in contact with autologous dendritic cells previously incubated with the peptides of the invention. The combination of peptides used is composed of: SEQ ID NO: 23, SEQ ID NO: 66, SEQ ID NO: 73, SEQ ID NO: 77, SEQ ID NO: 97, SEQ ID NO: 138, SEQ ID NO: 157, SEQ ID NO: 185, SEQ ID NO: B11, SEQ ID NO: B12 and SEQ ID NO: B13. The compounds were synthesized chemically without amino-terminal modification and with carboxy-terminal (peptide-NH2) amidation (NH2). After three successive stimulations at intervals of seven days of the CD4+ T cells of a naive individual (MPL10; Établissement français du sang de Toulouse), an IFN-γ ELISPOT was carried out with the cells in the presence or absence of the mixture of peptides, or in the presence of each compound individually. […] Each positive line responds to at least one of the peptides of the present invention. The MPL10-3 line responds to the peptides SEQ ID NO: 73 and SEQ ID NO: 157. The MPL10-4 line responds to the peptides SEQ ID NO: 23, SEQ ID NO: 73, SEQ ID NO: 77, SEQ ID NO: 97, SEQ ID NO: 138 and SEQ ID NO: 157. The MPL10-7 line responds to the peptides SEQ ID NO: 77, SEQ ID NO: 97 and SEQ ID NO: 157. The MPL10-8 line responds to the peptides SEQ ID NO: 66, SEQ ID NO: 73, SEQ ID NO: 97, SEQ ID NO: 138 and SEQ ID NO: 157. The MPL10-10 line responds to the peptides SEQ ID NO: 66, SEQ ID NO: 73, SEQ ID NO: 77, SEQ ID NO: 97, SEQ ID NO: 138, SEQ ID NO: 157 and SEQ ID NO: 185. And the MPL10-12 line responds to the peptides SEQ ID NO: 66, SEQ ID NO: 157 and SEQ ID NO: 185.
The evaluation of the immunogenicity properties of peptide compounds of the invention in the same naive individual (MPL10) but with chemically synthesized compounds with the addition of a palmitoylated tail at the amino-terminal end and with an NH2 group at the carboxy-terminal end (PAL-peptide-NH2) was also performed. The same combination of peptides as before was used. After three stimulations with the mixture of PAL-peptide-NH2 peptides, an IFN-g ELISPOT was carried out with the cells in the presence or absence of the mixture of peptides, or in the presence of each peptide individually. […]

[3] = LmLRAB (IA, IB, IC) epitopes, Table 2
[4] = MPL10-PAL-3 line, PAL-peptide-NH2
[5] = MPL10-PAL-2 line, PAL-peptide-NH2

MSHRTMKSM (Leishmania major) [SEQ ID NO: 10]
Affinity for the HLA supertypes of class I [1]: HLA-A*01/HLA-A*03,; also recorded: HLA-B*58,; also recorded: HLA-B*62
Affinity for the HLA alleles of class I (HLA alleles of class I): HLA-B*57:01,; also recorded: HLA-A*30:01,; also recorded: HLA-B*15:01

KAINAQMSMM (Leishmania major) [SEQ ID NO: 4]
Affinity for the HLA supertypes of class I [1]: HLA-B*58,; also recorded: HLA-B*62
Affinity for the HLA alleles of class I (HLA alleles of class I): HLA-B*58:01,; also recorded: HLA-B*57:01,; also recorded: HLA-B*15:01

SMSHRTMKIK (Leishmania major) [SEQ ID NO: 17]
Affinity for the HLA supertypes of class I [1]: HLA-A*01/HLA-; also recorded: A*03, HLA-A*03
Affinity for the HLA alleles of class I (HLA alleles of class I): HLA-A*03:01,; also recorded: HLA-A*11:01,; also recorded: HLA-A*30:01

MPHVDQSSI (Leishmania major) [SEQ ID NO: 74]
Affinity for HLA supertypes of class I [1, 3]: HLA-B*07,; also recorded: HLA-B*08
Concatenation affinity for HLA allele of class I (HLA alleles of class I; [3]): HLA-B*07:02,; also recorded: HLA-B*35:01,; also recorded: HLA-B*51:01,; also recorded: HLA-B*53:01,; also recorded: HLA-B*08:01

KARYMPHVDQSSIARYASFRSTEAIRYSSIMVVANK (Leishmania major) [SEQ ID NO: 77]
IFN-γ ELISPOT response of specific line to individual peptide ([2]; MPL10-4 line, peptide-NH2): responds
IFN-γ ELISPOT response of specific line to individual peptide ([2]; MPL10-7 line, peptide-NH2): responds
IFN-γ ELISPOT response of specific line to individual peptide ([2]; MPL10-10 line, peptide-NH2): responds
IFN-γ ELISPOT response of specific line to individual peptide [2, 4]: responds

AINAQMSMM (Leishmania major) [SEQ ID NO: 1]
Affinity for the HLA supertypes of class I [1]: HLA-B*62
Affinity for the HLA alleles of class I (HLA alleles of class I): HLA-B*15:01

SEQ ID NO: 66: multiepitopic peptide compound of overlapping H2B epitopes of sequences SEQ ID NO: 24 to 64; sequence not printed (KGRKPKRSWNVYVGRSLKAINAQMSMSHRTMKIV; Leishmania major)
IFN-γ ELISPOT response of specific line to individual peptide ([2]; MPL10-8 line, peptide-NH2): responds
IFN-γ ELISPOT response of specific line to individual peptide ([2]; MPL10-10 line, peptide-NH2): responds
IFN-γ ELISPOT response of specific line to individual peptide ([2]; MPL10-12 line, peptide-NH2): responds
IFN-γ ELISPOT response of specific line to individual peptide [2, 5]: responds
IFN-γ ELISPOT response of specific line to individual peptide [2, 4]: responds

KGRSENAIVTSRKVQEEVFDLFTDVHYSEVSAKTK (Leishmania major) [SEQ ID NO: 138]
IFN-γ ELISPOT response of specific line to individual peptide ([2]; MPL10-4 line, peptide-NH2): responds
IFN-γ ELISPOT response of specific line to individual peptide ([2]; MPL10-8 line, peptide-NH2): responds
IFN-γ ELISPOT response of specific line to individual peptide ([2]; MPL10-10 line, peptide-NH2): responds
IFN-γ ELISPOT response of specific line to individual peptide [2, 4]: responds

KARYMSMSHRTMKSMSHRTMKIKAINAQMSMMERICTEAA (Leishmania major) [SEQ ID NO: 23]
IFN-γ ELISPOT response of specific line to individual peptide ([2]; MPL10-4 line, peptide-NH2): responds
IFN-γ ELISPOT response of specific line to individual peptide [2, 4]: responds

KAARSARSGEGYFLTDEKTSLVYGDGG (listed as Leishmania infantum) [SEQ ID NO: 157]
IFN-γ ELISPOT response of specific line to individual peptide ([2]; MPL10-3 line, peptide-NH2): responds
IFN-γ ELISPOT response of specific line to individual peptide ([2]; MPL10-4 line, peptide-NH2): responds
IFN-γ ELISPOT response of specific line to individual peptide ([2]; MPL10-7 line, peptide-NH2): responds
IFN-γ ELISPOT response of specific line to individual peptide ([2]; MPL10-8 line, peptide-NH2): responds
IFN-γ ELISPOT response of specific line to individual peptide ([2]; MPL10-10 line, peptide-NH2): responds
IFN-γ ELISPOT response of specific line to individual peptide ([2]; MPL10-12 line, peptide-NH2): responds
IFN-γ ELISPOT response of specific line to individual peptide [2, 5]: responds
IFN-γ ELISPOT response of specific line to individual peptide [2, 4]: responds

KEMPSGSDYSHMSIRDLDFSNMGLLLSGT (KEMPSGSDYSHSMIRDLDFSNMGLLLSGT; listed as Leishmania infantum) [SEQ ID NO: 185]
IFN-γ ELISPOT response of specific line to individual peptide ([2]; MPL10-10 line, peptide-NH2): responds
IFN-γ ELISPOT response of specific line to individual peptide ([2]; MPL10-12 line, peptide-NH2): responds
IFN-γ ELISPOT response of specific line to individual peptide [2, 5]: responds
IFN-γ ELISPOT response of specific line to individual peptide [2, 4]: responds
